Data on 9 molecules can be found in ChEMBL document CHEMBL1131305, “1-[2(R)-(2-amino-2-methylpropionylamino)-3-(1H-indol-3-yl)propionyl]- 3-benzylpiperidine-3(S)-carboxylic acid ethyl ester (L-163,540): a potent, orally bioavailable, and short-duration growth hormone secretagogue” (J Med Chem, 1998).

pEC50: −log10 of the molar value. A value given as a limit tells only on which side of the number the result lay.

Data set [1] is filed under the species Rattus norvegicus. Kind of data set: Effective concentration for half-maximal release of growth hormone determined in the rat pituitary cell assay, normalized against standard L692,429 (60 nM). It counts as functional. Particulars: Pituitary gland cell.
The nature of data set [2]: Bioavailability in rats at 26.3 mg/kg oral dose. The data set is classed as ADME, organism-based. To be noted: rat, in vivo.
Data set [3] in a line: Maximum plasma concentration following oral administration of 26.3 mg/kg in rats. The data set is classed as ADME, organism-based. Also on record: dose 26.3 mg/kg, route oral. Particulars: rat.
Data set [4] can be described thus: Volume of distribution was determined in rat at 5.5 mg/kg, iv. It counts as ADME, organism-based. Details: dose 5.5 mg/kg, route intravenous. Particulars: in vivo, read-out: Vdss.
Data set [5] can be described thus: Volume of distribution was determined in dogs at 0.46 mg/kg, iv. To be noted: dog, in vivo, read-out: Vdss. Also on record: dose 0.46 mg/kg, route intravenous. It counts as ADME, organism-based, Canis lupus familiaris.
Data set [6] in a line: Half-life determined at 5.5 mg/kg, iv, in rat. It counts as ADME, organism-based. Details: dose 5.5 mg/kg. Particulars: in vivo.
A short description of data set [7]: Clearance rate at 5.5 mg/kg, iv, in rat. The data set is classed as ADME, organism-based. To be noted: in vivo. Details: dose 5.5 mg/kg.
Data set [8] can be described thus: Maximum plasma concentration following oral administration of 3.8 mg/kg in Beagle dog. The data set is classed as ADME, organism-based, Canis lupus familiaris. Details: dose 3.8 mg/kg, route oral.
A short description of data set [9]: Half-life determined at 0.46 mg/kg, iv, in dogs. It counts as ADME, organism-based, Canis lupus familiaris. Also on record: dose 0.46 mg/kg. To be noted: dog, in vivo.
Data set [10] in a line: Bioavailability in dogs at 3.8 mg/kg oral dose. It counts as ADME, organism-based, Canis lupus familiaris. To be noted: dog, in vivo.
A short description of data set [11]: Clearance rate at 0.46 mg/kg, iv, in dogs. The data set is classed as ADME, organism-based, Canis lupus familiaris. Details: dose 0.46 mg/kg. Particulars: dog, in vivo.

Broadly, the pEC50 is the negative decadic logarithm of the EC50, by convention in mol/L. A low value points to a large EC50. In data set [1], `CC(C)(N)C(=O)N[C@H](Cc1c[nH]c2ccccc12)C(=O)N1CCC[C@@](Cc2ccccc2)(C(=O)O)C1` had a pEC50 of 6.72.
Consider `CCNC(=O)[C@]1(Cc2ccccc2)CCCN(C(=O)[C@@H](Cc2c[nH]c3ccccc23)NC(=O)C(C)(C)N)C1`, for which the pEC50 in data set [1] is 9.10.
For `CCOC(=O)[C@]1(Cc2ccccc2)CCCN(C(=O)[C@@H](CCCc2ccccc2)NC(=O)C(C)(C)N)C1`, the pEC50 in data set [1] was 8.10.
Regarding `CCOC(=O)[C@]1(Cc2ccccc2)CCN(C(=O)[C@@H](Cc2c[nH]c3ccccc23)NC(=O)C(C)(C)N)C1`, in data set [1], the pEC50 is < 7.30.
Molecule `CCOC(=O)[C@@]1(Cc2ccccc2)CCCN(C(=O)[C@@H](Cc2c[nH]c3ccccc23)NC(=O)C(C)(C)N)C1` had a pEC50 in [1] of 7.66.
As a reminder, the bioavailability is dose-corrected exposure relative to a reference, in per cent. Low readings indicate little systemic uptake, high ones much systemic uptake. A word on the Cmax: it is the peak of the concentration-time curve. In general, half-life refers to the time in which the quantity being followed falls by half. Lower therefore signals rapid decline. What is called clearance is a measure of how efficiently the substance is removed, as volume per time. The low end stands for inefficient removal, the high end for efficient removal. On to `CCOC(=O)[C@]1(Cc2ccccc2)CCCN(C(=O)[C@@H](Cc2c[nH]c3ccccc23)NC(=O)C(C)(C)N)C1`, for which the bioavailability came to 12.1% in [2] and 29% in data set [10]. The Cmax in data set [3] worked out at 182 ng/mL; in [8] it was 560 ng/mL. For the same molecule, the Vd in data set [4] came out at 2.7 L/kg; in data set [5] it was 1.3 L/kg. Moreover, the half-life in data set [6] is 24 min; in [9], 72 min. Moreover, the clearance in data set [7] was 206 mL/min/kg; in data set [11], 23 mL/min/kg.
With `CCOC(=O)[C@]1(Cc2ccccc2)CCCN(C(=O)[C@@H](COCc2ccccc2)NC(=O)C(C)(C)N)C1`, the negative-log EC50 (pEC50) in data set [1] was 7.70.
Still for that read-out and setting: the result for `CCOC(=O)[C@]1(Cc2ccccc2)CCCN(C(=O)[C@@H](Cc2c[nH]c3ccccc23)NC(=O)C(C)N)C1` (stereo partly drawn) reads 8.22; that for `CCOC(=O)[C@]1(Cc2ccccc2)CCCCN(C(=O)[C@@H](Cc2c[nH]c3ccccc23)NC(=O)C(C)(C)N)C1`, < 6.70.
